Experiments:
[1] = tested on: MTX/PTX treated and SSEA4 positive cells; assay: Cardiomyocyte marker expression in cardiomyocytes differentiation medium (FIG. 31); type: cell-based, human
Procedure: MTX/PTX treated and SSEA4 positive cells were maintained on Matrigel-coated 6-well plates in mTeSR1 medium. To induce differentiation, cells with EB-like morphology were dissociated with Accutase (Invitrogen) at 37° C. for 5 minutes and then single cell suspension was seeded onto a Matrigel-coated cell-culture dish at 100,000 cell/cm^2 in mTeSR1 supplemented with 5 μM ROCK inhibitor (Y-27632) for 24 hours. The cells then were cultured in mTeSR1 medium, which was changed daily. Next, 8 μl of 36 mM CHIR99021 were added into 24 ml RPMI/B27-insulin medium to make 12 μM CHIR99021 RPMI/B27-insulin medium and 2-ml of this were added to each well after the old mTeSR1 medium was removed. Exactly 24 hours after adding CHIR, the medium was replaced with 2 ml room temperature RPMI/B27-insulin. The plate was put back into the 37° C., 5% CO2 incubator. 72 hours post addition of CHIR99021, 1 ml medium from each well was removed and the remaining 1-ml was supplemented with 1-ml RPMI/B27-insulin with 5 μM IWP2 (WNT pathway inhibitor). After 48 hours, the medium was replaced with fresh RPMI/B27-insulin and this was incubated at 37° C., 5% CO2 incubator. After this, every 2-days, the old medium was removed from each well of the 12-well plate and 2 ml/well room temperature RPMI/B27 medium was added and incubated at 37° C., 5% CO2. Spontaneous contraction should occur by day 14 and spontaneous beating can be maintained for several weeks. […] The expression of the key cardiomyocyte markers, Nkx2, which is an early cardiac transcriptional factor, indicative of cardiac progenitor phenotype, and cTNT, which is cardiac troponin T, a muscle contractility regulatory protein, indicative of a mature cardiac phenotype, were tested.

[2] = tested on: HF57; assay: Embryoid body formation from SSEA4 positive sorted cells (FIG. 27); type: cell-based, human; conditions: treated 7 or more days, low methionine, mTeSR Plus + HT, after 15-days
Procedure: HEK293T and HF57 were treated with MTX and PTX for 7 or more days in low methionine condition. SSEA4 positive cells were sorted using cell sorter and maintained on mTeSR™ Plus medium supplemented with HT.

[3] = tested on: HEK293T cells; assay: Histone methylation levels (FIG. 19); type: cell-based, human; conditions: vs control
Procedure: (§1) Calculation of methylation level (based on OD values as shown on y-axis) was performed according to manufacturer's instructions. Representative histogram from three independent experiments are shown. All data are presented as the mean±standard error (SE) of triplicate measurements. *P<0.05, ***P<0.001.

[4] = tested on: HF57 cells; assay: Histone methylation levels (FIG. 19); type: cell-based, human; conditions: vs control
Procedure: as §1

[5] = tested on: HF57 cells; assay: qRT-PCR relative transcript levels (FIG. 21B, FIG. 32); type: cell-based, human; conditions: for transcripts level of DNMT1 / transcripts level of MTHFR / transcripts level of MTR / relative transcripts level of Nanog / relative transcripts level of Oct4 / relative transcripts level of Sox2: FIG. 21B; for relative transcripts level of Nanog / relative transcripts level of Oct4 / relative transcripts level of Sox2: vs control cells
Procedure: Also, the cells were treated with PTX for 2-days only. Since exposure time of PTX or MTX is very critical for gene expression or other genetic changes, the expression of ANOS could be higher after prolonged exposure to PTX.
To validate microarray results, quantitative 2-step RT-PCR was performed. One microgram of total RNA was reverse transcribed to first-strand cDNA with the Qiagen cDNA Synthesis Kit (Qiagen), and this cDNA was subsequently used as a template for quantitative PCR with gene-specific primers. The ubiquitous β-actin gene served as a control for constitutive gene expression. The quantitative RT-PCR (qRT-PCR) reactions were performed using Power Sybr Green PCR Master Mix (Thermo Fisher Scientific) on a CFX96 Touch Real-Time PCR Detection System (Bio-Rad, Hercules, CA, USA). Relative expression levels (2^−ΔCt) were calculated according to the Livak and Schmittgen method (40). Expression levels of each gene were compared with the expression level of actin.
The quiescent nature of the MTX and PTX cells and the association of demethylation with the generation of induced pluripotent stem cells led to examining markers for stem cells formation. The 293T and HF57 cells were grown on 5% dialyzed FBS DMEM medium. DMEM without methionine, DMEM with 15 mg/L (half dose) and DMEM with 30 mg/L (regular DMEM) were used to grow the cells. Once the cells attained 70% confluency, HF57 were treated with 1-μM MTX or PTX and HEK293T were treated with 500 nM MTX or 1 μM PTX. The cells were treated with MTX or PTX for 7-days, and subsequently the medium was replaced with N2B27 medium (Thermo Fisher Scientific, USA). The cells were grown in N2B27 medium for 15 days which supported undifferentiated growth of human embryonic stem cells. Subsequently, these cells were maintained in MTeSR medium supplemented with sodium hypoxanthine and thymidine (HT) for 15 or more days. These conditions supported prolonged self-renewal of putative pluripotent cells, and they were able to form colonies and later embryoid bodies in vitro. Subsequently, the cells were assessed for markers linked to stem cells. Transcriptomics and qRT-PCR were performed to examine whether ES cell marker genes were expressed in these cells. Both MTX and PTX treated cells expressed the marker genes (FIGS. 20-21 and 25-26). […] To authenticate these findings, two key pluripotency markers (SSEA-4 and TRA 1-60) were examined using immunofluorescence.

[6] = tested on: human fibroblast cells (HF57); assay: Cell proliferation under prolonged MTX/PTX application, with or without HT (FIG. 16); type: cell-based; conditions: controlled application, 5% dialyzed-FBS DMEM, 1 μM MTX for 7-days
Procedure: (§2) The cells were grown in 5% dialyzed-FBS DMEM medium. 293T cells were treated with 500 nM MTX, and HF57 cells and HDF cells were treated with 1 μM MTX for 7-days. Because inhibition of DHFR and TS by folate antagonists (MTX, PTX) results in a deficiency in the cellular pools of thymidylate and purines and thus a decrease in nucleic acid synthesis, sodium hypoxanthine (10 mM) and thymidine (1.6 mM) were added to the medium to overcome the effects of MTX and PTX. […] The cells were harvested for DNA/RNA isolation and analyzed for gene expression and DNA methylation.

[7] = tested on: human dermal fibroblast (HDF) cells; assay: as above; type: cell-based; conditions: controlled application, 5% dialyzed-FBS DMEM, 1 μM MTX for 7-days
Procedure: as §2

Structure (SMILES)	expression of Nkx2 [1]	expression of cTNT [1]	embryoid body formation [2]	Dimethyl H3-K9 methylation [3]	global histone H3-K4 methylation [3]	Dimethyl H3-K9 methylation [4]	global histone H3-K4 methylation [4]	transcripts level of DNMT1 [5]	transcripts level of MTHFR [5]	transcripts level of MTR [5]	relative transcripts level of Nanog [5]	relative transcripts level of Oct4 [5]	relative transcripts level of Sox2 [5]	expression of ANKRD1 ([5]; treated for 2-days)	expression of ANOS ([5]; treated for 2-days)	cell proliferation [6]	cell proliferation [7]
Nc1nc2[nH]cc(CCc3ccc(C(=O)N[C@@H](CCC(=O)O)C(=O)O)cc3)c2c(=O)[nH]1 [PTX, pemetrexed]	significantly up-regulated	significantly up-regulated	start forming embryoid bodies	significantly reduced	significantly reduced	significantly reduced	significantly reduced	significantly reduced	significantly reduced	significantly reduced	significantly higher	significantly higher	significantly higher	significantly higher than control	significantly higher than control	reduced cell proliferation	reduced cell proliferation
CN(Cc1cnc2nc(N)nc(N)c2n1)c1ccc(C(=O)N[C@@H](CCC(=O)O)C(=O)O)cc1 [MTX, methotrexate]	significantly up-regulated	significantly up-regulated	start forming embryoid bodies	significantly reduced	significantly reduced	significantly reduced	significantly reduced	significantly reduced	significantly reduced	significantly reduced	significantly higher	significantly higher	significantly higher			reduced cell proliferation	reduced cell proliferation
